Test results from the Kinase Knowledgebase extract (Sharma et al. 2016).

Biological target: CDK2 (UniProt P24941)
Assay: Enzyme Assay

Row | Structure (SMILES) | IC50
1 | CCc1cnn2c(Nc3ccc(C(N)=O)cc3)cc(N[C@H]3CC[C@@H](N)CC3)nc12 | 350 nM
2 | CC(C)c1cnn2c(Nc3ccc(S(C)(=O)=O)cc3)cc(Cl)nc12 | 220 nM
3 | COc1cc(Nc2cc(N[C@H]3CC[C@H](N)CC3)nc3c(Br)cnn23)ccc1S(=O)(=O)N(C)C | 270 nM
4 | CSc1cc(Nc2cc(N[C@H]3CC[C@H](N)CC3)nc3ccnn23)ccc1S(=O)(=O)N(C)C | > 50000 nM
5 | CC(C)c1cnn2c(NC3CCN(S(=O)(=O)C(C)C)CC3)cc(N[C@H]3CC[C@H](N)CC3)nc12 | 11900 nM
6 | N[C@H]1CC[C@H](Oc2cc(Nc3ccc(S(=O)(=O)c4ccccc4)cc3)n3ncc(Cl)c3n2)CC1 | 45 nM
7 | N[C@H]1CC[C@H](Nc2cc(Nc3ccc(S(=O)(=O)c4ccccc4)cc3)n3ncc(Cl)c3n2)CC1 | 15 nM
8 | CCNC(=O)N[C@H]1CC[C@H](Nc2cc(Nc3ccc(S(=O)(=O)N(C)C)cc3)n3ncc(C(C)C)c3n2)CC1 | 305 nM
9 | CC(C)c1cnn2c(Nc3ccc(S(=O)(=O)N(C)CCO)cc3)cc(OCCN(C)C)nc12 | 240 nM
10 | CC(C)c1cnn2c(Nc3ccc(S(=O)(=O)N(C)CCO)cc3)cc(NC3CCCC3)nc12 | 302 nM
11 | CC(C)c1cnn2c(Nc3ccc(S(=O)(=O)N4CCCC4)cc3)cc(Cl)nc12 | 270 nM
12 | CC(C)c1cnn2c(NCc3ccncc3)cc(-c3cccc(Br)c3)nc12 | 530 nM
13 | N[C@H]1CC[C@H](Oc2cc(Nc3ccc(S(=O)(=O)c4ccccc4)cc3)n3ncc(Br)c3n2)CC1 | 15 nM
14 | CC(C)c1cnn2c(Nc3ccc(S(C)(=O)=O)cc3)cc(OC3CCCCC3)nc12 | 950 nM
15 | CC(C)c1cnn2c(Nc3ccc(S(=O)(=O)N(C)C)cc3)cc(Nc3ccncc3)nc12 | 3090 nM
